pKi: −log10 of the molar value. Where two headings read alike, the source gives them in different places.

The values below come from patent EP4631938A1, “NITROGEN-CONTAINING HETEROCYCLE WITH SEROTONIN RECEPTOR-BINDING ACTIVITY AND CARBOCYCLIC DERIVATIVE” (Shionogi & Co., Ltd, priority 2022, dated 2024).

In test [1] the target is T1, human recombinant 5-HT2A receptor (Homo sapiens, UniProt P28223).
T1 construct: expressed in transfected cells; host or cells: Jump-In HEK cells (membrane preparation)
Nature of the test: Test Example 1-2: 5-HT2A receptor binding inhibition test ([3H]-Ketanserin; non-specific ligand Ketanserin). The method, boiled down:
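Ki values were derived from dose-response inhibition of [3H]-ketanserin binding; nonspecific binding was set with 500 µmol/L ketanserin, and Kd was set for each membrane lot from Scatchard saturation plots. Incubation lasted 1.5 h at room temperature (25 °C). Bound radioligand was harvested on Tris-HCl (pH 7.4)-presoaked filters and counted.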

In test [2] the target is T2, human recombinant 5-HT2C receptor (Homo sapiens, UniProt P28335).
T2 construct: expressed in transfected cells; host or cells: Jump-In HEK cells (membrane preparation)
T2 sequence (P28335 33-458): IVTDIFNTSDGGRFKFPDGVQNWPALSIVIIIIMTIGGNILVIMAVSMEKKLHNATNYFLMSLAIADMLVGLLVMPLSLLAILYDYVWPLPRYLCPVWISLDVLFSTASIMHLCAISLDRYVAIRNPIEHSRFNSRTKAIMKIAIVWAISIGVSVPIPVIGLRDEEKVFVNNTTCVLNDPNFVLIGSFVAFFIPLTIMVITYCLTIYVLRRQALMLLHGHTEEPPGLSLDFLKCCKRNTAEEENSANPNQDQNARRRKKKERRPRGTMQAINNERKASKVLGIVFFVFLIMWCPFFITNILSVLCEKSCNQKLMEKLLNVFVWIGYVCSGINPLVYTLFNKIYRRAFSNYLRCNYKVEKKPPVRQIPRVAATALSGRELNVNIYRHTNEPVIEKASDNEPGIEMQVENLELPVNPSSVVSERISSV
Nature of the test: Test Example 2-2: 5-HT2C receptor binding inhibition test ([3H]-Mesulergine; non-specific ligand Ketanserin). The following applies: non-specific binding with 500 µmol/L Ketanserin, 37°C, 2 hours. The method, boiled down:
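Membranes expressing the receptor were incubated with compound and [3H]-Mesulergine for 2 h at 37 °C, then filtered and counted by scintillation. Non-specific binding was defined with 500 µmol/L Ketanserin. Percent inhibition versus vehicle gave dose-response curves, from which Ki was derived using a Kd from Scatchard saturation analysis.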

Where [3] appears, read: [3H]-Ketanserin, non-specific binding with 500 µmol/L Ketanserin, room temperature (25°C), 1.5 hours, read-out: h 5-HT2A Ki.

T1 sequence (P28223 whole entry): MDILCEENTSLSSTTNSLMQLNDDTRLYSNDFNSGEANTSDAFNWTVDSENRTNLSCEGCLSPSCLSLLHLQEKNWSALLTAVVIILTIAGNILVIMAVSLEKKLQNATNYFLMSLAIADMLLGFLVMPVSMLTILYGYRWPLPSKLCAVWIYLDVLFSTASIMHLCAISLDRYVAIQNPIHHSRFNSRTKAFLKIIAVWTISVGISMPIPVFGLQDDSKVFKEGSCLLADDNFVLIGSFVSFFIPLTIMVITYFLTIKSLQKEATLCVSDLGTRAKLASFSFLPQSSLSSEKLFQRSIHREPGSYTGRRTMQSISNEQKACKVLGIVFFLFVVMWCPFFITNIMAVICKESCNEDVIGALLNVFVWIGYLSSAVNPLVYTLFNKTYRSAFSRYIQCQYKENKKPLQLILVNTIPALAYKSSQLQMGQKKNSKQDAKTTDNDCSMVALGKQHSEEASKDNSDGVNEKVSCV

The pKi is −log10 of the Ki, conventionally taken in molar units. Turning to `Cn1ncc(Br)c1-c1cc(Nc2ncc(Cl)cc2F)cnc1OCCO` [Compound I-117], the pKi in test [1] (setting [3]) was 9.62; in test [2], 9.52.
Taken in the same sequence, the figures for `Cn1ncc(Br)c1-c1cc(Nc2nc3ccccc3s2)cnc1OCCO` [Compound I-118] were 9.58 and 9.22.
For `Cn1ncc(Br)c1-c1cc(Nc2ncc(C3CC3)cn2)ccc1OCCO` [Compound I-120] the same measures were 9.04 and 8.41.
As to `Cn1ncc(C#N)c1-c1cc(Nc2ccc(OC(F)(F)F)cn2)ccc1OCCO` [Compound I-121], the results for the negative logarithm of the Ki (pKi) in test [1] (setting [3]) and in test [2] were 9.55 and 8.89, respectively.
Taken in the same sequence, the figures for `Cc1nc(C)c(-c2cc(Nc3ccc(C(F)(F)F)cn3)ccc2OCCO)c(C)n1` [Compound I-122] were 9.31 and 8.86.
Take `Cc1nc(C)c(-c2cc(Nc3ccc(Cl)cn3)ccc2OCCO)c(C)n1` [Compound I-123]: the pKi in test [1] (setting [3]) is 9.09; in test [2], 8.25.
With `Cc1ncnc(C)c1-c1cc(Nc2ccc(OC(F)(F)F)cn2)ccc1OCCO` [Compound I-124], the results for the pKi in test [1] (setting [3]) and in test [2] were 9.59 and 8.63, respectively.
Taken in the same sequence, the figures for `Cn1ncc(C#N)c1-c1cc(Nc2ccc(C(F)(F)F)cn2)c(F)cc1OCCO` [Compound I-125] were 9.44 and 8.22.
`Cc1cnn(C)c1-c1cc(Nc2ccc(C(F)(F)F)cn2)c(Oc2ccn(C)n2)cc1OCCO` [Compound I-126]: the pKi in test [1] (setting [3]) is 9.18; in test [2], 8.35.
For `Cn1ncc(Br)c1-c1cc(Nc2ccc(C3CC3)cn2)cnc1OCCO` [Compound I-128] the same measures were 9.59 and 9.34.
On to `Cn1ncc(Br)c1-c1cc(Nc2ncc(C3CC3)s2)cnc1OCCO` [Compound I-129], for which the pKi in test [1] (setting [3]) was 9.63; in test [2], 9.02.
For the compound `Cn1ncc(Br)c1-c1cc(Nc2ncc(Cl)s2)cnc1OCCO` [Compound I-130], the pKi in test [1] (setting [3]) is 9.59; in test [2], 8.49.
For `Cn1ncc(Br)c1-c1cc(Nc2ncc(C(F)(F)F)cn2)cnc1OCCO` [Compound I-131], the pKi in test [1] (setting [3]) was 9.79; in test [2], 8.90.
Taken in the same sequence, the figures for `Cn1ncc(Br)c1-c1cc(Nc2ncc(Cl)cn2)cnc1OCCO` [Compound I-132] were 9.63 and 8.30.
Taken in the same sequence, the figures for `Cn1ncc(Br)c1-c1cc(Nc2ncc(C3CC3)cn2)cnc1OCCO` [Compound I-133] were 9.49 and 8.60.
Taken in the same sequence, the figures for `Cc1ncnc(C)c1-c1cc(Nc2ncc(C(F)(F)F)cc2F)cnc1OCCO` [Compound I-134] were 9.21 and 7.88.
Regarding `Cc1nc(C)c(-c2cc(Nc3ncc(C(F)(F)F)cc3F)cnc2OCCO)c(C)n1` [Compound I-135], the values for the pKi in test [1] (setting [3]) and in test [2] were 8.91 and 8.15, respectively.
Taken in the same sequence, the figures for `Cn1ncc(Cl)c1-c1cc(Nc2ncc(Cl)cc2F)ccc1OCCO` [Compound I-136] were 9.78 and 9.56.
In the case of `Cn1ncc(Cl)c1-c1cc(Nc2ncc(F)cc2F)ccc1OCCO` [Compound I-137], the pKi in test [1] (setting [3]) is 9.69; in test [2], 9.11.
Regarding `Cn1ncc(Cl)c1-c1cc(Nc2ncc(Cl)cn2)ccc1OCCO` [Compound I-138], the pKi in test [1] (setting [3]) was 9.58; in test [2] it was 8.32.
Taken in the same sequence, the figures for `Cn1ncc(F)c1-c1cc(Nc2ncc(Cl)cc2F)cnc1OCCO` [Compound I-139] were 9.37 and 8.11.
For `Cc1cnn(C)c1-c1cc(Nc2ncc(Cl)cc2F)ccc1OCCO` [Compound I-140] the same measures were 9.83 and 8.97.
For `Cc1cnn(C)c1-c1cc(Nc2ncc(Cl)cc2F)cnc1OCCO` [Compound I-141] the same measures were 9.53 and 8.39.
As for `Cn1ncc(Cl)c1-c1cc(Nc2ncc(C(F)(F)F)cc2F)cnc1OCCO` [Compound I-142], the figures for the pKi in test [1] (setting [3]) and in test [2] were 9.57 and 9.71, respectively.
For `Cn1ncc(Cl)c1-c1cc(Nc2ncc(Cl)cc2F)cnc1OCCO` [Compound I-143] the same measures were 9.59 and 9.56.
Regarding `Cc1cnn(C)c1-c1cc(Nc2ncc(C(F)(F)F)cc2F)c(F)cc1OCCO` [Compound I-144], the pKi in test [1] (setting [3]) was 9.47; in test [2], 8.60.
Taken in the same sequence, the figures for `Cn1ncc(F)c1-c1cc(Nc2ncc(C(F)(F)F)cc2F)c(F)cc1OCCO` [Compound I-145] were 9.69 and 8.32.
For `Cc1noc(C)c1-c1cc(Nc2ncc(C(F)(F)F)cc2F)c(F)cc1OCCO` [Compound I-147] the same measures were 9.59 and 8.32.
For `Cn1ncc(Br)c1-c1cc(Nc2ncc(C(F)(F)F)cn2)c(F)cc1OCCO` [Compound I-148] the same measures were 9.30 and 9.04.
Consider `Cn1ncc(Br)c1-c1cc(Nc2ncc(Cl)cn2)c(F)cc1OCCO` [Compound I-149], for which the results for the pKi in test [1] (setting [3]) and in test [2] were 9.44 and 8.87, respectively.
Taken in the same sequence, the figures for `Cn1ncc(Br)c1-c1cc(Nc2ncc(C(F)(F)F)cc2F)c(F)cc1OCCO` [Compound I-150] were 9.55 and 9.62.
Taken in the same sequence, the figures for `Cn1ncc(Br)c1-c1cc(Nc2ccc(C(F)(F)F)cn2)c(F)cc1OCCO` [Compound I-151] were 9.53 and 9.69.
Turning to `Cn1ncc(Br)c1-c1cc(Nc2ncc(Cl)cc2F)c(F)cc1OCCO` [Compound I-152], the pKi in test [1] (setting [3]) was 9.45; in test [2], 9.28.
Taken in the same sequence, the figures for `Cn1ncc(Br)c1-c1cc(Nc2ccc(Cl)cn2)c(F)cc1OCCO` [Compound I-153] were 9.54 and 9.45.
With `Cn1ncc(Br)c1-c1cc(Nc2ncc(F)cc2F)c(F)cc1OCCO` [Compound I-154], the pKi in test [1] (setting [3]) is 9.48; in test [2] it was 8.96.
Regarding `Cn1ncc(Br)c1-c1cc(Nc2ncc(Cl)cc2F)ncc1OCCO` [Compound I-155], the results for the pKi in test [1] (setting [3]) and in test [2] were 9.50 and 8.98, respectively.
Consider `Cn1ncc(Cl)c1-c1cc(Nc2ncc(Cl)cc2F)ncc1OCCO` [Compound I-156], for which the pKi in test [1] (setting [3]) was 9.50; in test [2] it was 8.75.
For `Cc1cnn(C)c1-c1cc(Nc2ccc(C(F)(F)F)cn2)c(F)cc1OCCO` [Compound I-157] the same measures were 9.62 and 8.63.
For `Cc1nc(C)c(-c2cc(Nc3ccc(C(F)(F)F)cn3)c(F)cc2OCCO)c(C)n1` [Compound I-158], the pKi was 9.04 in test [1] (setting [3]) and 8.46 in test [2].
Turning to `Cn1ncc(Br)c1-c1cc(Nc2ncc(C(F)(F)F)cn2)ncc1OCCO` [Compound I-159], the pKi was 9.53 in test [1] (setting [3]) and 8.73 in test [2].
In the case of `Cn1ncc(C#N)c1-c1cc(Nc2ncc(C(F)(F)F)cc2F)ccc1OCCO` [I-031], the pKi was 9.62 in test [1] and 8.80 in test [2].
For `C=C(C)c1cnn(C)c1-c1cc(Nc2ncc(C(F)(F)F)cc2F)ccc1OCCO` [I-054] the same measures were 9.20 and 8.99.
In the case of `CC(C)c1cnn(C)c1-c1cc(Nc2ncc(C(F)(F)F)cc2F)ccc1OCCO` [I-056], the pKi is 8.89 in test [1] and 8.98 in test [2].
Taken in the same sequence, the figures for `C#Cc1cnn(C)c1-c1cc(Nc2ncc(C(F)(F)F)cc2F)ccc1OCCO` [I-058] were 9.38 and 9.34.
Taken in the same sequence, the figures for `Cn1ncc(Br)c1-c1cc(Nc2nc3ccc(Cl)cc3s2)ccc1OCCO` [I-064] were 9.49 and 9.74.
In the case of `Cn1cnc(C#N)c1-c1cc(Nc2ncc(C(F)(F)F)cc2F)ccc1OCCO` [I-065], the results for the pKi in test [1] and in test [2] were 9.82 and 8.30, respectively.
Taken in the same sequence, the figures for `Cn1ncc(Br)c1-c1cc(Nc2ncc(C(F)(F)F)cc2F)cnc1OCCO` [I-082] were 9.74 and 9.45.
Take `Cn1ncc(C#N)c1-c1cc(Nc2ncc(C(F)(F)F)cc2F)c(F)cc1OCCO` [I-108]: the pKi in test [1] was 9.32; in test [2], 8.21.
